What was measured:
[1] = system: person who underwent hip replacement surgery because of coxarthrosis
From the text: A person underwent hip replacement surgery because of coxarthrosis (their right leg being […] shorter). The surgery was initiated at 10:00 a.m. on Jul. 10, 2019 and completed around 11 o'clock a.m. on the same day.
Initially, use of crutches for three months was planned as in usual cases, based on the anticipated postoperative course (that is, the patient was expected to use both crutches for the first 1.5 months and one crutch for the subsequent 1.5 months).

[2] = stated as known; cited from earlier work

SMILES: [HH] [hydrogen, molecular hydrogen]
- time after the surgery at which the patient did not need to use crutches ([1]; hydrogen gas approximately 5.0%, approximately 200 mL/min, inhaled three to four hours per day from immediately after surgery, with rehabilitation, crutches for three months had been planned): 13 days
- postoperative recovery ([1]; hydrogen inhalation from immediately after hip replacement surgery, approximately 5.0% hydrogen, three to four hours per day, with rehabilitation): achieved early postoperative recovery
- discharge from hospital (date) ([1]; surgery on Jul. 10, 2019, hydrogen inhalation from immediately after the surgery): July 20

SMILES: [2H][2H] [D2, deuterium]
- superoxide eliminating effect compared with H2 [2]: stronger superoxide eliminating effect than that of H2

— patent US20210213049A1, “METHOD AND MOLECULAR HYDROGEN-CONTAINING COMPOSITION FOR PROMOTION OF POSTOPERATIVE RECOVERY” (MiZ Company Limited, priority 2020, published 2021)
